Assay [1] has as its target T1, 5-HT1A receptor (Rattus norvegicus, UniProt P19327).
T1 construct: the brains were rapidly chilled and dissected to obtain the hippocampi; from tissue; host or cells: hippocampal membranes of male Sprague-Dawley rats
T1 sequence (P19327 1-422): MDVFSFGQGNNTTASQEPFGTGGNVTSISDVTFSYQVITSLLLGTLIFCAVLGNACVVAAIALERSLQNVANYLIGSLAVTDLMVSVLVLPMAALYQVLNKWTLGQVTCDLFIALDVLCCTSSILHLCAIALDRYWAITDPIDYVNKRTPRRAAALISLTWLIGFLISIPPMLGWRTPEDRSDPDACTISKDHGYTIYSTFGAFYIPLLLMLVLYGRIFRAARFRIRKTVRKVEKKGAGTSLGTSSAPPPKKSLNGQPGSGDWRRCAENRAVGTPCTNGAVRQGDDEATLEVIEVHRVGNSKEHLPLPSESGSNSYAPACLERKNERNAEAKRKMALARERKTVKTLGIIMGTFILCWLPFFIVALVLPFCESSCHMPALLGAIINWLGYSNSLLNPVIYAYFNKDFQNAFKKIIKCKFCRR
As to the kind of experiment: 5-HT1A receptor in vitro binding ([3H]8-OH-DPAT, rat hippocampal membranes). Details: species or system male Sprague-Dawley rats. The note with it: inhibition of [3H]8-OH-DPAT (1.0 nM) binding by 50%, pH 7.4, 10 min at 37° C. The method, then: The affinities of certain of the compounds of Formula 1 at the central 5-HT1A receptors were determined using a modification of the binding assay described by Taylor et al., J. Pharmacol. Exp. Ther. 236, 118-125 (1986). Membranes for the binding assay were prepared from male Sprague-Dawley rats (150-250 g). The animals were killed by decapitation, and the brains were rapidly chilled and dissected to obtain the hippocampi. Membranes from the hippocampi were either prepared that day, or the hippocampi were stored frozen (-70° C.) until the day of preparation. The membranes were prepared by homogenizing the tissue in 40 volumes of ice-cold Tris-HCl buffer (50 mM, pH 7.4 at 22° C.) using a Techmar Tissumizer (setting 65 for 15 sec), and the homogenate was centrifuged at 39800× g for 10 minutes. The resulting pellet was then resuspended in the same buffer, and the centrifugation and resuspension process was repeated three additional times to wash the membranes. Between the second and third washes the resuspended membranes were incubated for 10 minutes at 37° C. to facilitate the removal of endogenous ligands. The final pellet was resuspended in 67 mM Tris-HCl, pH 7.4, to a concentration of 2 mg of tissue original wet weight/200 μl. This homogenate was stored frozen (-70° C.) until the day of the binding assay. […] The assay tubes were incubated for 10 minutes at 37° C. and the contents were then rapidly filtered through GF/B filters (pretreated with 0.5% polyethylenimine), followed by four 1 ml washes with ice-cold buffer. The radioactivity trapped by the filters was quantitated by liquid scintillation spectrometry, and specific [^3 H]8-OH-DPAT binding to the 5-HT1A sites was defined as the difference between [^3 H]8-OH-DPAT bound in the presence and absence of 10 μM 5-HT.
In Table 1, the first column provides the Example Number of the compound evaluated while the second column provides the amount of test compound (expressed in nanomolar concentration) required to inhibit the binding of [^3 H]8-OH-DPAT by 50% (indicated as IC50).

For assay [2], the target named is 5-HT1D receptor. As to the kind of experiment: 5-HT1D receptor in vitro binding ([3H]5-HT, bovine caudate membranes). The following applies: inhibition of [3H]5-HT (1.7-1.9 nM) binding by 50%, 8-OH-DPAT and mesulergine (100 nM each) as masks, pH 7.4, 10 min at 37° C. The protocol:
The affinities of certain of the compounds of Formula 1 at the central 5-HT1D binding sites were determined using a modification of the binding assay described by Heuring and Peroutka, J. Neurosci., 7, 894 (1987). Bovine brains were obtained and the caudate nuclei were dissected out and frozen at -70° C. until the time that the membranes were prepared for the binding assays. At that time the tissues were homogenized in 40 volumes of ice-cold Tris-HCl buffer (50 mM, pH 7.4 at 22° C.) with a Techmar Tissumizer (setting 65 for 15 sec), and the homogenate was centrifuged at 39,800× g for 10 minutes. The resulting pellet was then resuspended in the same buffer, and the centrifugation and resuspension process was repeated three additional times to wash the membranes. Between the second and third washes the resuspended membranes were incubated for 10 minutes at 37° C. to facilitate the removal of endogenous 5-HT. The final pellet was resuspended in the buffer to a concentration of 25 mg of original tissue wet weight/ml for use in the binding assay. […] The assay tubes were incubated for 10 minutes at 37° C. and the contents were then rapidly filtered through GF/B filters (pretreated with 0.5% polyethylenimine), followed by four 1 ml washes with ice-cold buffer. The radioactivity trapped by the filters was quantitated by liquid scintillation spectrometry, and specific [^3 H]5-HT binding to the 5-HT1D sites was defined as the difference between [^3 H]5-HT bound in the presence and absence of 10 μM 5-HT.
In Table 2, the first column provides the Example Number of the compound evaluated while the second column provides the amount of test compound (expressed in nanomolar concentration) required to inhibit the binding of [^3 H]5-HT by 50% (indicated as IC50).

The structures appear in SMILES notation. Counter-ions that a name gives are not always drawn.

We go through eleven compounds from patent publication US5627199A, “6-heterocyclic-4-amino-1,2,2A,3,4,5-hexahydrobenz [CD] indoles” (ELi Lilly and Company, priority 1995, dated 1997).

As to `CCCN(CCC)[C@@H]1Cc2c(-c3nc(-c4ccccc4)no3)ccc3c2[C@H](CN3)C1` [Example 12, (2aR,4S)-6-(3-phenyl-1,2,4-oxadiazol-5-yl)-4-(di-n-propylamino)-1,2,2a,3,4,5-hexahydrobenz[cd]indole], the IC50 (in general, the midpoint of a concentration-inhibition curve) in assay [1] is 105 nM.

In the case of `CCCN(CCC)[C@H]1Cc2c(-c3ccno3)ccc3c2[C@@H](CN3)C1` [Example 10, (+)(2aS, 4R)-6-(5-isoxazolyl)-4-(di-n-propylamino)-1,2,2a,3,4,5-hexahydrobenz[cd]indole.2 HCl], the IC50 amounted to 0.73 nM in assay [1] and 11.2 nM in assay [2].

For the compound `CCCN(CCC)[C@H]1Cc2c(-c3ccoc3)ccc3c2[C@@H](CN3)C1` [Example 15, (+)(2aS,4R)-6-(3-furyl)-4-(di-n-propylamino)-1,2,2a,3,4,5-hexahydrobenz[cd]indole], the concentration for half-maximal inhibition (IC50) was found to be 2.74 nM in assay [1] and 19.4 nM in assay [2].

Take `CCCN(CCC)[C@H]1Cc2c(-c3ccon3)ccc3c2[C@@H](CN3)C1` [Example 8, (+)(2aS,4R)-6-(3-isoxazolyl)-4-(di-n-propylamino)-1,2,2a,3,4,5-hexahydrobenz[cd]indole.2 HCl]: the IC50 was determined as 0.91 nM in assay [1] and 9.12 nM in assay [2].

`CCCN(CCC)[C@@H]1Cc2c(-c3ccco3)ccc3c2[C@H](CN3)C1` [Example 13, (-)(2aR,4S)-6-(2-furyl)-4-(di-n-propylamino)-1,2,2a,3,4,5-hexahydrobenz[cd]indole]: the values for the IC50 in assay [1] and in assay [2] were 21.1 nM and 1890 nM, respectively.

Regarding `CCCN(CCC)[C@H]1Cc2c(-c3cc[nH]n3)ccc3c2[C@@H](CN3)C1` [Example 6, (+)(2aS,4R)-6-(3-pyrazolyl)-4-(di-n-propylamino)-1,2,2a,3,4,5-hexahydrobenz[cd]indole.2HCL], the half-inhibitory concentration (IC50) in assay [1] amounted to 6.37 nM; in assay [2], 30 nM.

On to `CCCN(CCC)C1Cc2c(-c3ccno3)ccc3c2C(CN3)C1` (racemic) [Example 7, (±)-6-(5-isoxazolyl)-4-(di-n-propylamino)-1,2,2a,3,4,5-hexahydrobenz[cd]indole.2HCl], for which the IC50 in assay [1] is 1.95 nM; in assay [2], 23.6 nM.

As for `CCCN(CCC)[C@H]1Cc2c(-c3ccccn3)ccc3c2[C@@H](CN3)C1` [Example 17, (+)(2aS, 4R)-6-(2-pyridyl)-4-(di-n-propylamino)-1,2,2a,3,4,5-hexahydrobenz[cd]indol], the figures for the IC50 in assay [1] and in assay [2] were 17.3 nM and 163 nM, respectively.

For the compound `CCCN(CCC)[C@H]1Cc2c(-c3cccnc3)ccc3c2[C@@H](CN3)C1` [Example 18, (+)(2aS,4R)-6-(3-pyridyl)-4-(di-n-propylamino)-1,2,2a,3,4,5-hexahydrobenz[cd]indole], the IC50 in assay [1] stood at 1.92 nM; in assay [2], 40.3 nM.

For `CCCN(CCC)[C@H]1Cc2c(-c3ccco3)ccc3c2[C@@H](CN3)C1` [Example 14, (+)(2aS,4R)-6-(2-furyl)-4-(di-n-propylamino)-1,2,2a,3,4,5-hexahydrobenz[cd]indole], the IC50 in assay [1] turned out to be 5.3 nM; in assay [2] it was 43.1 nM.

On to `CCCN(CCC)[C@@H]1Cc2c(-c3ccno3)ccc3c2[C@H](CN3)C1` [Example 11, (-)(2aR,4S)-6-(5-isoxazolyl)-4-(di-n-propylamino)-1,2,2a,3,4,5-hexahydrobenz[cd]indole.2 HCl], for which the figures for the IC50 in assay [1] and in assay [2] were 2.08 nM and 1380 nM, respectively.
